Measured values taken from patent US10226467B2, “Compounds for the treatment of myotonic dystrophy” (UNIVERSITAT DE VALÈNCIA, priority 2014, dated 2019).

Experiments:
[1] = tested on: MBNL1 in DM1 myoblasts; assay: Quantification of Mbl expression or localization (anti-MBNL1 immunodetection); format: cell-based, human; conditions: FIG. 6, at 1 microM, one day, versus DMSO
Protocol: Immortalized transdifferentiated DM1 fibroblasts were seeded in a […] (8000 cell/per well) in standard media. To achieve the differentiation of the fibroblast to myoblasts, we induced MyoD expression by changing the standard media to differentiation media with Doxocycline and without serum. 24 h after induction, the compounds were added the cells at different concentrations, always maintaining the concentration of the solvent (DMSO) at 1% in the media. Every concentration of compound was tested in three different wells. 24 h after adding the compounds the cells were fixed with paraformaldehyde 4% in PBS and Mbl detection using monoclonal anti-MBNL1 antibody was performed counterstaining with Hoechst to detect the nuclei. Incell 200 plate reader confocal was used for detection and quantification of the parameters selected and the data was analyzed using Graphpad software for statistical comparison of results.

[2] = tested on: ribonuclear foci in DM1 fibroblasts; assay: Ribonuclear foci per cell (in situ hybridization of CUG repeat RNA); format: cell-based, human; conditions: FIG. 4, versus DMSO
From the text: Its reduction is typically used as evidence of desired activity against myotonic dystrophy in cell culture models because MBNL proteins are sequestered in ribonuclear foci. Since MBNL proteins are limiting in myotonic dystrophies an increase in free MBNLs is expected to be therapeutic. • Evidences from Human Myoblasts:
Cell model of the disease (provided by the D. Furling's laboratory, Institute of Myologie, Paris) consisted of normal and DM1 (1300 CTG repeats) immortalized (hTERT) skin fibroblasts expressing conditional MyoD. Fibroblast cells were grown in Dulbecco's Modified Eagle Medium (DMEM) with 4.5 g/L of glucose, 1% of penicillin and streptomycin (P/S) and 10% foetal bovine serum (FBS) (Sigma). Fibroblasts were transdifferentiated in myoblasts by inducing expression of MyoD. […]
In situ hybridization with CUG repeat RNA. […] Images were taken using a Leica DM2500 fluorescence microscope and foci were manually counted from at least 50 cells per compound.
DM1 fibroblasts were seeded in a […] (8000 cell/per well) in standard media one day before adding the compounds to the media. […] Incell 200 plate reader confocal was used for detection and quantification of the parameters selected and the data was analyzed using Graphpad software for statistical comparison of results.

[3] = tested on: 6-FAM-(CUG)23 probe (CUG repeats RNA); assay: Fluorescence polarization assay of binding to CUG repeat RNA; conditions: FIG. 2; increasing concentrations; compared to a control compound that does not bind CUG repeats
Protocol: This was assessed in fluorescence polarization spectroscopy experiments. In these tests, when polarized light excites a fluorophore conjugated to a small molecule, it undergoes rotational diffusion faster than the time required for light emission occurs, resulting in a random arrangement of the molecule in the fluorescence emission time (depolarization). However, the rotation of the molecule becomes slower depending on the viscosity of the medium or the molecular volume, increasing the polarization of the emitted light. Thus, by measuring changes in polarization of an RNA with 23 CUG repeats conjugated to the fluorophore carboxyfluorescein, FAM (CUG) 23, we can consider whether a candidate molecule binds to the RNA.
Fluorescent CUG RNA (carboxyfluorescein (6-FAM)-labeled) was incubated with increasing concentrations of example compounds. […]
Carboxyfluorescein-labeled CUG RNA (6-FAM-CUG23) at 6 nM was incubated with the compounds at different concentrations in binding buffer (50 mM Tris-HCl pH 7.0, 250 mM NaCl, 50 μM ZnCl2, 10% glycerol, 1 mM DTT) on ice for 20 min in the dark. Polarization was measured in an EnVision® Multilabel Reader using as excitation filter FP480 and as emission filter FP535.

[4] = tested on: 6-FAM-(CUG)23 probe (CUG repeats RNA); conditions: positive control, Warf et al. 2009; cited from earlier work

Row | Compound | Mbl staining intensity in nuclei [1] | further results
1 | Cn1c(=O)[nH]c2ncn(C)c2c1=O [Compound 6, 1,7-Dimethylxanthine] | increase significantly | 
2 | CC(C)Cn1c(=O)n(C)c(=O)c2[nH]cnc21 [Compound 7, 3-Isobutyl-1-methylxanthine] | increase significantly | 
3 | Cn1c(=O)[nH]c(=O)c2[nH]cnc21 [Compound 8, 3-Methylxanthine] | increase significantly | 
4 | CCCn1c(=O)c2[nH]cnc2n(CC)c1=O [Compound 9, 3-Ethyl-1-propylxanthine] | increase significantly | 
5 | Cn1c(=O)c2c(ncn2CCCCCCCn2cnc3c2c(=O)n(C)c(=O)n3C)n(C)c1=O [Theophylline-C7] |  | mean number of ribonuclear foci per cell [2]: significantly decreased
6 | Cn1c(=O)c2c(ncn2CCCCCCCCCn2cnc3c2c(=O)n(C)c(=O)n3C)n(C)c1=O [Theophylline-C9] |  | binding to CUG repeats (polarization of 6-FAM-(CUG)23 probe relative to probe alone) [3]: very strong bond; mean number of ribonuclear foci per cell [2]: significantly decreased
7 | N=C(N)c1ccc(OCCCCCOc2ccc(C(=N)N)cc2)cc1 [pentamidine] |  | binding to CUG repeats (previously shown) [4]: attached to the CUG repeats
